As usually defined, the IC50 is the concentration that gives 50% inhibition.

Experimental findings from US8318730B2, “Fused hetrocyclic compounds” (Synta Pharmaceuticals Corporation, priority 2003, dated 2012) are described below.

SMILES strings stand for the structures.

Experiment [1] has as its system DNBS-induced distal colitis in Wistar derived rats. Description: Dinitrobenzene sulfonic acid-induced inflammatory bowel syndrome model rats. As to conditions: oral, 24 and 2 hours before DNBS instillation and then daily for 5 days. It counts as in vivo, rat. How it is done: Wistar derived male or female rats weighing 200±20 g and fasted for 24 hours are used. Distal colitis was induced by intra-colonic instillation of 2,4-dinitrobenzene sulfonic acid (DNBS, 25 mg in 0.5 mL ethanol 30%) after which air (2 mL) is gently injected through the cannula to ensure that the solution remained in the colon. A test compound and/or vehicle is administered orally 24 and 2 hours before DNBS instillation and then daily for 5 days. One control group is similarly treated with vehicle alone while the other is treated with vehicle plus DNBS. The animals are sacrificed 24 hours after the final dose of test compound administration and each colon is removed and weighed. Colon-to-body weight ratio is then calculated for each animal according to the formula: Colon (g)/BW×100. The “Net” increase in ratio of Vehicle-control+DNBS group relative to Vehicle-control group is used as a base for comparison with test substance treated groups and expressed as “% Deduction.” Fused heterocyclic compounds of this invention (e.g., Compound 12) reproducibly have about 30% deduction. A 30% or more reduction in colon-to-body weight ratio, relative to the vehicle treated control group, is considered significant.

In a further experiment the test system is IL-12 production. Description: In vitro assay of Example 12: inhibition of IL-12 production in IFNγ/LPS- or IFNγ/SAC-stimulated cells, ELISA. Format: cell-based, human. As to conditions: Homo sapiens. The source says: The biological activities of a compound can be evaluated by a number of cell-based assays. One of such assays can be conducted using cells from human peripheral blood mononuclear cells (PBMC) or human monocytic cell line (THP-1). The cells are stimulated with a combination of human interferon-γ (IFNγ) and lipopolysaccharide or a combination of IFNγ and Staphylococcus aureus Cowan I in the presence of a test compound. The level of inhibition of IL-12 production can be measured by determining the amount of p70 by using a sandwich ELISA assay with anti-human IL-12 antibodies. IC50 of the test compound can then be determined. Specifically, PBMC or THP-1 cells are incubated with the test compound. Cell viability was assessed using the bioreduction of MTS [3-(4,5-dimethylthiazol-2-yl)-5-(3-carboxymethoxyphenyl)-2-(4-sulfophenyl)-2H-tetrazolium] (Promega, Madison, Wis.).
Staphylococcus aureus Cowan I (SAC) is obtained from Calbiochem (La Jolla, Calif.), and lipopolysaccharide (LPS, Serratia marscencens) is obtained from Sigma (St. Louis, Mo.). Human and mouse recombinant IFNγ are purchased from Boehringer Mannheim (Mannheim, Germany) and Pharmingen (San Diego, Calif.), respectively.
Human PBMC are isolated by centrifugation using Ficoll-Paque (Pharmacia Biotech, Uppsala, Sweden) and prepared in RPMI medium supplemented with 10% fetal calf serum (FCS), 100 U/mL penicillin, and 100 μg/mL streptomycin. PBMC are plated in wells of a 96-well plate at a concentration of 5×10^5 cells/well, and primed by adding IFNγ (30 U/mL) for 22 h and stimulated by adding LPS (1 μg/mL), or by adding IFNγ (100 U/mL) and then stimulated by adding SAC (0.01%). A test quinazoline compound is dissolved in DMSO, and added to wells of the 96-well plate. The final DMSO concentration is adjusted to 0.25% in all cultures, including the compound-free control. Human THP-1 cells are plated in wells, primed by adding IFNγ (100 U/mL) for 22 h and stimulated by adding SAC (0.025%) in the presence of different concentrations of the quinazoline compound. Cell-free supernatants are taken 18 h later for measurement of cytokines. Cell viability is assessed using the bioreduction of MTS. Cell survival is estimated by determining the ratio of the absorbance in compound-treated groups versus compound-free control.
The supernatant is assayed for the amount of IL-12p40, IL-12p70, or IL-10 by using a sandwich ELISA with anti-human antibodies, i.e., a Human IL-12 p40 ELISA kit from R&D Systems (Berkeley, Calif.), and a Human IL-12 p70 or IL-10 ELISA kit from Endogen (Cambridge, Mass.). Assays are based on the manufacturer's instructions.
The biological activities of quinazoline compounds are tested on human PBMC or THP-1 cells.
In general terms: ELISA stands for enzyme-linked immunosorbent assay.

In experiment [2] the test system is adjuvant arthritis (AA) in female Lewis rats. The experiment can be described thus: Treatment of adjuvant arthritis in rats. Format: in vivo, rat. As to conditions: oral administration once a day for 12 days; dose-dependent. How it is done:
Adjuvant arthritis (AA) is induced in female Lewis rats by the intracutaneous injection (base of the tail) of 0.1 mL of a 10 mg/mL bacterial suspension made from ground, heat-killed Mycobacterium tuberculosis H37Ra suspended in incomplete Freund's adjuvant. Rats are given a test compound orally once a day for 12 days, starting the day following the induction. The development of polyarthritis is monitored daily by macroscopic inspection and assignment of an arthritis index to each animal, during the critical period (days 10 to 25 post-immunization).
The intensity of polyarthritis scored according to the following scheme: (a) Grade each paw from 0 to 3 based on erythema, swelling, and deformity of the joints: 0 for no erythema or swelling; 0.5 if swelling is detectable in at least one joint; 1 for mild swelling and erythema; 2 for swelling and erythema of both tarsus and carpus; and 3 for ankylosis and bony deformity. Maximum score for all 4 paws is thus 12. (b) Grade for other parts of the body: for each ear, 0.5 for redness and another 0.5 if knots are present; 1 for connective tissue swelling (saddle nose); and 1 for the presence of knots or kinks in the tail. The highest possible arthritic index is […].

Experiment [3] deals with colitis in C.B-17 SCID mice. The experiment can be described thus: CD4+ CD45Rb high T cell-reconstituted SCID colitis model mice. Format: in vivo, mouse. How it is done:
Spleen cells are prepared from normal female BALB/c mice. For cell purification, the following anti-mouse antibodies are used to label non-CD4^+ T cells: B220 (RA3-6B2), CD11b (Ml/70), and CD8a (53-6.72). All antibodies are obtained from BioSource (Camarillo, Calif.). M450 anti-rat IgG-coated magnetic beads (Dynal, Oslo, Norway) are used to bind the antibodies and negative selection is accomplished using an MPC-1 magnetic concentrator. The enriched CD4^+ cells are then labeled for cell sorting with FITC-conjugated CD45RB (16A, Pharmingen, San Diego, Calif.) and PE-conjugated CD4 (CT-CD4, Caltag, Burlingame, Calif.). CD4^+ CD45RB^high cells are operationally defined as the upper 40% of CD45Rb-staining CD4^+ cells and sorted under sterile conditions by flow cytometry. Harvested cells are resuspended at 4×10^6/mL in PBS and injected 100 μL intraperitoneally into female C.B-17 SCID mice. Fused heterocyclic compounds of this invention and/or vehicle is orally administered once a day, 5 days per week, starting the day following the transfer. The transplanted SCID mice are weighed weekly and their clinical condition is monitored.
Colon tissue samples are fixed in 10% buffered formalin and embedded in paraffin. Sections (4 μm) collected from ascending, transverse, and descending colon are cut and stained with hematoxylin and eosin. The severity of colitis is determined based on histological examination of the distal colon sections, whereby the extent of colonic inflammation is graded on a scale of 0-3 in each of four criteria: crypt elongation, cell infiltration, depletion of goblet cells, and the number of crypt abscesses.
LP lymphocytes are isolated from freshly obtained colonic specimens. After removal of payer's patches, the colon is washed in Ca/Mg-free HBSS, cut into 0.5 cm pieces and incubated twice in HBSS containing EDTA (0.75 mM), DTT (1 mM), and antibiotics (amphotericin 2.5 μg/mL, gentamicin 50 μg/mL from Sigma) at 37° C. for 15 min. Next, the tissue is digested further in RPMI containing 0.5 mg/mL collagenase D, 0.01 mg/mL DNase I (Boehringer Manheim), and antibiotics at 37° C. LP cells are then layered on a 40-100% Percoll gradient (Pharmacia, Uppsala, Sweden), and lymphocyte-enriched populations are isolated from the cells at the 40-100% interface.
To measure cytokine production, 48-well plates are coated with 10 μg/mL murine anti-CD3ε antibody (145-2C11) in carbonate buffer (PH 9.6) overnight at 4° C. 5×10^5 LP cells are then cultured in 0.5 ml of complete medium in precoated wells in the presence of 1 μg/mL soluble anti-CD28 antibody (37.51). Purified antibodies are obtained from Pharmingen. […] Murine IFNγ is measured using an ELISA kit from Endogen (Cambridge, Mass.), according to the manufacturer's instructions.

Setting [4] is: assay of Example 12, if more than one assay was performed, only the most active IC50 result is reported.

With `Cc1cccc(-c2ccc3nc(OCCN4CCOCC4)nc(N4CCOCC4)c3c2)c1` [Compound 12, 4-Morpholin-4-yl-2-(2-morpholin-4-yl-ethoxy)-6-m-tolyl-quinazoline], in experiment [1], the “% Deduction (colon-to-body weight ratio)” value is on record as “about 30%”. Moreover, the half-inhibitory concentration (IC50) in the experiment with IL-12 production (setting [4]) turned out to be 189 nM. Further, in experiment [2], the arthritic score result is recorded as “reproducibly reduces the arthritic score” and the development of polyarthritis entry is given as “delayes the development of polyarthritis”. Moreover, in experiment [3] (ex vivo LP cells from treated mice), the “IFNγ production by LP cells in response to anti-CD3 and anti-CD28 antibody” value was “greatly diminishes the production”. Also, the colon-to-body weight ratio entry in experiment [3] (oral administration) is recorded as “attenuation”. Also, the “colonic inflammation (histological analysis)” value in experiment [3] (oral administration, compared to vehicle control) is listed as “reduce colonic inflammation”. The “colonic inflammation, suppressive effect” value in experiment [3] (oral, dose of 10 mg/kg) is listed as “substantial reduction”.

For the compound `Fc1ccc(-c2ccc3nc(OCCN4CCOCC4)nc(N4CCOCC4)c3c2)cc1` [Compound 38, 6-(4-Fluoro-phenyl)-4-morpholin-4-yl-2-(2-morpholin-4-yl-ethoxy)-quinazoline], the IC50 with IL-12 production (setting [4]) is more than 10000 nM.

Regarding `COc1ccc(CCOc2nc(N3CCOCC3)c3cc(Nc4cccc(C)c4)ccc3n2)cc1OC` [Compound 39, {2-[2-(3,4-Dimethoxy-phenyl)-ethoxy]-4-morpholin-4-yl-quinazolin-6-yl}-m-tolyl-amine], the half-inhibitory concentration (IC50) with IL-12 production (setting [4]) was more than 10000 nM.

As to `COc1ccc(CCOc2nc(N3CCOCC3)c3cc(Nc4ccc(C)cc4)ccc3n2)cc1OC` [Compound 40, {2-[2-(3,4-Dimethoxy-phenyl)-ethoxy]-4-morpholin-4-yl-quinazolin-6-yl}-p-tolyl-amine], the IC50 with IL-12 production (setting [4]) is more than 10000 nM.

With `COc1ccc(CCOc2nc(N3CCOCC3)c3cc(Nc4ccccc4C)ccc3n2)cc1OC` [Compound 41, {2-[2-(3,4-Dimethoxy-phenyl)-ethoxy]-4-morpholin-4-yl-quinazolin-6-yl}-o-tolyl-amine], in the experiment with IL-12 production (setting [4]), the IC50 is more than 10000 nM.

Regarding `Cc1cccc(-c2cnc3nc(OCCN4CCOCC4)nc(N4CCOCC4)c3c2)c1` [Compound 42, 4-Morpholin-4-yl-2-(2-morpholin-4-yl-ethoxy)-6-m-tolyl-pyrido[2,3-d]pyrimidine], the 50% inhibitory concentration (IC50) in the experiment on IL-12 production (setting [4]) was more than 10000 nM.

As to `FC(F)(F)c1cccc(-c2cnc3nc(OCCN4CCOCC4)nc(N4CCOCC4)c3c2)c1` [Compound 43, 4-Morpholin-4-yl-2-(2-morpholin-4-yl-ethoxy)-6-(3-trifluoromethyl-phenyl)-pyrido[2,3-d]pyrimidine], the half-inhibitory concentration (IC50) with IL-12 production (setting [4]) came to 1400 nM.

Regarding `Cc1ccc(-c2cnc3nc(OCCN4CCOCC4)nc(N4CCOCC4)c3c2)cc1C` [Compound 44, 6-(3,4-Dimethyl-phenyl)-4-morpholin-4-yl-2-(2-morpholin-4-yl-ethoxy)-pyrido[2,3-d]pyrimidine], the IC50 in the experiment with IL-12 production (setting [4]) was more than 10000 nM.

For the compound `c1ccc2oc(-c3cnc4nc(OCCN5CCOCC5)nc(N5CCOCC5)c4c3)cc2c1` [Compound 45, 6-Benzofuran-2-yl-4-morpholin-4-yl-2-(2-morpholin-4-yl-ethoxy)-pyrido[2,3-d]pyrimidine], in the experiment with IL-12 production (setting [4]), the IC50 was 770 nM.

With `Cc1ccccc1Oc1cnc2nc(OCCN3CCOCC3)nc(N3CCOCC3)c2c1` [Compound 46, 4-Morpholin-4-yl-2-(2-morpholin-4-yl-ethoxy)-6-o-tolyloxy-pyrido[2,3-d]pyrimidine], the concentration for half-maximal inhibition (IC50) with IL-12 production (setting [4]) is more than 1000 nM.

Turning to `Cc1ccc(Oc2cnc3nc(OCCN4CCOCC4)nc(N4CCOCC4)c3c2)cc1` [Compound 47, 4-Morpholin-4-yl-2-(2-morpholin-4-yl-ethoxy)-6-p-tolyloxy-pyrido[2,3-d]pyrimidine], the 50% inhibitory concentration (IC50) in the experiment with IL-12 production (setting [4]) is more than 1000 nM.

Consider `c1ccc(Oc2cnc3nc(OCCN4CCOCC4)nc(N4CCOCC4)c3c2)cc1` [Compound 48, 4-Morpholin-4-yl-2-(2-morpholin-4-yl-ethoxy)-6-phenoxy-pyrido[2,3-d]pyrimidine], for which the half-inhibitory concentration (IC50) with IL-12 production (setting [4]) is more than 1000 nM.

As for `Cc1cccc(-c2cc(O)c3cc(OCCN4CCOCC4)cc(N4CCOCC4)c3n2)c1` [Compound 49, 8-Morpholin-4-yl-6-(2-morpholin-4-yl-ethoxy)-2-m-tolyl-quinolin-4-ol], the IC50 in the experiment with IL-12 production (in an assay according to Example 12) is 5400 nM.
